Experimental findings from patent US20230321086A1, “METHODS AND MATERIALS FOR INHIBITING NICOTINAMIDE PHOSPHORIBOSYLTRANSFERASE ACTIVITY” (Universiy of Pittsburgh - Of the Commonwealth System of …, priority 2020, published 2023) are described below.

The subject of this assay is A431 cells. The assay can be described thus: Assay for total NADH and NAD+ measurements in cells. It counts as cell-based. Also noted: C: change in NAD levels in response to test compound, shown as % of NAD activity in the absence of test compound: concentration or dose not given beside the values. The note with it: percent of NAD level of untreated control cells (100 = no change). The method, then:
2,000 cells/well and, at the same time, test compounds dissolved in media at the desired concentration were added to each well. The treated cells were incubated overnight in C02 incubator. The cells were washed 6 times with PBS with 1 mM CaCl2) and 1 mM MgCl2. In the last wash, 10 μL of PBS with 1 mM CaCl2) and 1 mM MgCl2 per well were left in each well. Immediately thereafter, 10 μL 0.4% dodecyltrimethylammonium bromide (DTAB) in phosphate buffer pH 8.0 as added, and the plates were shaked at 1000 rpm for 5 minutes. 60 μL reaction mix was added, and fluorescence at Ex/Em 530/585 was immediately monitored. A linear increase should be achieved with 8 cycles every 92 seconds, 10 number of flashes/well/cycle. The reaction mix was prepared per the following table, respecting the amount and order in which each component was added:
All assays were performed in A431 cells. Referring to the tables below, activity: “+” ≥25 μM, “++” ≥1 μM and <25 μM, and “+++”<1 μM.
In each table header, A: NAMPT enzyme inhibitory activity, IC50 (μM); B: Cellular NAD inhibitory activity, IC50 (μM); and C: change in NAD levels in response to test compound, shown as % of NAD activity in the absence of test compound. […] A percentage of 100 percent would indicate no increase or decrease in NAD levels as compared to that measured for untreated control cells, while a percentage of 50 percent would indicate a decrease in NAD levels of 50 percent as compared to that measured for untreated control cells.
With `CCc1ccc(-c2nc3cc(C(=O)N4CCN(C)CC4)ccc3nc2-c2ccc(F)cc2)cc1` [BC19319], the “C: change in NAD levels in response to test compound, shown as % of NAD activity in the absence of test compound” value stood at 95%.
Consider `C#CCNC(=O)c1ccc2nc(-c3cccs3)c(-c3ccc(F)cc3)nc2c1` [BC19120], for which the “C: change in NAD levels in response to test compound, shown as % of NAD activity in the absence of test compound” value is 84%.
As for `Cn1oc(-c2ccc3nc(-c4ccc(F)cc4)c(-c4ccc(F)cc4)nc3c2)cc1=O` [BC19667], the figure is 38%; as for `COCC(=O)N1CCC(C(=O)Nc2ccc3nc(-c4ccc(F)cc4)c(-c4ccc(F)cc4)nc3c2)CC1` [BC19494], 52%; as for `O=C(Nc1ccc2nc(-c3ccc(F)cc3)c(-c3ccc(F)cc3)nc2c1)OCC(F)(F)F` [BC19239], 66%.
As for `Oc1ccc2nc(-c3ccc(F)cc3)c(-c3ccc(F)cc3)nc2n1` [BC19448], the figure is 78%; as for `Cc1nnc(-c2ccc3nc(-c4ccc(F)cc4)c(-c4ccc(F)cc4)nc3c2)n1C` [BC19301], 57%; as for `CN(C)CCCNS(=O)(=O)c1ccc2nc(-c3ccc(F)cc3)c(-c3ccc(F)cc3)nc2c1` [BC19562], 1%.
For `Cn1ncc2c(-c3ccc4nc(-c5ccc(F)cc5)c(-c5ccc(F)cc5)nc4c3)cccc21` [BC19305], the “C: change in NAD levels in response to test compound, shown as % of NAD activity in the absence of test compound” value was found to be 93%.
For `Cn1cnnc1-c1ccc2nc(-c3ccc(F)cc3)c(-c3ccc(F)cc3)nc2c1` [BC19101] the value was 53%; for `O=C(NCc1cccnc1)Nc1ccc2nc(-c3ccc(F)cc3)c(-c3ccc(F)cc3)nc2c1` [BC19571], 10%; for `Cn1cnnc1-c1cnc2nc(-c3ccc(F)cc3)c(-c3ccc(F)cc3)nc2c1` [BC19496], 95%.
For `O=C(NCCO)Nc1ccc2nc(-c3ccc(F)cc3)c(-c3ccc(F)cc3)nc2c1` [BC19566] the value was 77%; for `Cc1ccncc1-c1ccc2nc(-c3ccc(F)cc3)c(-c3ccc(F)cc3)nc2c1` [BC19304], 69%; for `O=S(=O)(NCCCN1CCOCC1)c1ccc2nc(-c3ccc(F)cc3)c(-c3ccc(F)cc3)nc2c1` [BC19508], 28%.
For `N#Cc1ccc2nc(-c3ccc(F)cc3)c(-c3ccc(F)cc3)nc2c1` [BC19192] the value was 76%; for `O=C(NCCN1CCOCC1)c1ccc2nc(-c3ccc(OC(F)(F)F)cc3)c(-c3ccc(OC(F)(F)F)cc3)nc2c1` [BC19503], 43%; for `CN(C)CCNC(=O)Nc1ccc2nc(-c3ccc(F)cc3)c(-c3ccc(F)cc3)nc2c1` [BC19564], 5%.
On to `O=S(=O)(NCCN1CCOCC1)c1ccc2nc(-c3ccc(F)cc3)c(-c3ccc(F)cc3)nc2c1` [BC19504], for which the “C: change in NAD levels in response to test compound, shown as % of NAD activity in the absence of test compound” value worked out at 58%.
For `O=C(NCCN1CCOCC1)Nc1ccc2nc(-c3ccc(F)cc3)c(-c3ccc(F)cc3)nc2c1` [BC19567], the “C: change in NAD levels in response to test compound, shown as % of NAD activity in the absence of test compound” value is 46%.
For `CN1CCN(C(=O)c2ccc3nc(-c4cccc(N(C)C)c4)c(-c4cccc(N(C)C)c4)nc3c2)CC1` [BC19498] the value was 66%.
As for `CCc1nnc(-c2ccc3nc(-c4ccc(F)cc4)c(-c4ccc(F)cc4)nc3c2)o1` [BC19246], the figure is 58%.
For `Fc1ccc(-c2nc3ccc(-c4cccnc4)cc3nc2-c2ccc(F)cc2)cc1` [BC19242] the value was 72%; for `O=C(c1ccc2nc(-c3ccc(F)cc3)c(-c3ccc(F)cc3)nc2c1)N1CCN(CCOCCO)CC1` [BC19514], 73%.
For `CN1CCN(C(=O)c2ccc3nc(-c4ccc(Cl)cc4)c(-c4ccc(Cl)cc4)nc3c2)CC1` [BC19450], the “C: change in NAD levels in response to test compound, shown as % of NAD activity in the absence of test compound” value was determined as 78%.
For `O=C(NCCO)c1ccc2nc(-c3ccc(OC(F)(F)F)cc3)c(-c3ccc(OC(F)(F)F)cc3)nc2c1` [BC19453] the value was 88%.
As for `N#Cc1ccc2nc(-c3ccc(F)cc3)c(-c3ccc(F)cc3)nc2n1` [BC19512], the figure is 85%; as for `CN1CCN(Cc2ccc3nc(-c4ccc(F)cc4)c(-c4ccc(F)cc4)nc3c2)CC1` [BC19577], 41%.
As for `Fc1ccc(-c2nc3ccc(-c4c[nH]nn4)cc3nc2-c2ccc(F)cc2)cc1` [BC19150], the figure is 89%; as for `Fc1ccc(-c2nc3ccc(-c4nnnn4CCN4CCOCC4)cc3nc2-c2ccc(F)cc2)cc1` [BC19238], 68%.
For the compound `CS(=O)(=O)N1CCC(C(=O)Nc2ccc3nc(-c4ccc(F)cc4)c(-c4ccc(F)cc4)nc3c2)CC1` [BC19312], the “C: change in NAD levels in response to test compound, shown as % of NAD activity in the absence of test compound” value turned out to be 54%.
For `Cn1cc(-c2cnc3nc(-c4ccc(F)cc4)c(-c4ccc(F)cc4)nc3c2)nn1` [BC19401] the value was 55%; for `CN1CCN(C(=O)c2ccc3nc(-c4ccc(OC(F)(F)F)cc4)c(-c4ccc(OC(F)(F)F)cc4)nc3c2)CC1` [BC19445], 14%; for `CN1CCN(C(=O)C2Cc3nc(-c4ccc(F)cc4)c(-c4ccc(F)cc4)nc3C2)CC1` [BC19723], 54%.
On to `CCCn1cc(-c2cnc3nc(-c4ccc(F)cc4)c(-c4ccc(F)cc4)nc3c2)nn1` [BC19402], for which the “C: change in NAD levels in response to test compound, shown as % of NAD activity in the absence of test compound” value came out at 64%.
As for `CN1CCOc2cc(-c3ccc4nc(-c5ccc(F)cc5)c(-c5ccc(F)cc5)nc4c3)ccc21` [BC19244], the figure is 86%; as for `C#CCNC(=O)c1ccc2nc(-c3ccc(Cl)cc3)c(-c3ccc(Cl)cc3)nc2c1` [BC19451], 57%.
Turning to `C#CCNC(=O)c1ccc2nc(-c3ccc(F)cc3)c(-c3ccc(F)cc3)nc2c1` [BC19154], the “C: change in NAD levels in response to test compound, shown as % of NAD activity in the absence of test compound” value stood at 73%.
As to `OCCCn1cnnc1-c1ccc2nc(-c3ccc(F)cc3)c(-c3ccc(F)cc3)nc2c1` [BC19665], the “C: change in NAD levels in response to test compound, shown as % of NAD activity in the absence of test compound” value is reported as 58%.
Regarding `CC(=O)N1CCN(c2ccc3nc(-c4ccc(F)cc4)c(-c4ccc(F)cc4)nc3c2)CC1` [BC19511], the “C: change in NAD levels in response to test compound, shown as % of NAD activity in the absence of test compound” value is recorded as 26%.
